From ChEMBL document CHEMBL6177956, “Discovery of first-in-class human glycolate oxidase near infrared molecular rotor inhibitors (NIRGOi)” (Eur J Med Chem, 2025)

How the values were obtained:
[1] = target: T1, 2-Hydroxyacid oxidase 2 (Rattus norvegicus, UniProt Q07523); experiment: Inhibition of rat LCHAO using 2-hydroxyoctanoate as substrate incubated for 30 mins by Amplex Red reagent based fluorometric analysis; assay type: toxicity
T1 sequence (Q07523 whole entry): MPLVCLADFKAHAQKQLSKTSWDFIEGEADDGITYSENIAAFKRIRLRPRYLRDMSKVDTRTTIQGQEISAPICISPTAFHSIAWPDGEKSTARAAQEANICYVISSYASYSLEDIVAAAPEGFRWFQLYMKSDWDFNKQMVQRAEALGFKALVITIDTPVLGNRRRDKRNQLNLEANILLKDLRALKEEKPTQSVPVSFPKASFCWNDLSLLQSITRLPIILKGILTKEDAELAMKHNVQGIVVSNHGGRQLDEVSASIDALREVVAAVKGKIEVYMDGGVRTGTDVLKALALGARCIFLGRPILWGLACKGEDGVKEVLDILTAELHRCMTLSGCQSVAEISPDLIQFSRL

[2] = target: T1, 2-Hydroxyacid oxidase 2; experiment: Binding affinity to rat LCHAO by Amplex Red reagent based fluorescence analysis; assay type: toxicity

SMILES | IC50 [1] | Kd [2]
O=C(O)c1cc(/C=C/C2=CC(=C3C(=O)c4ccccc4C3=O)c3ccccc3O2)ccc1O | 248 µM | 462 µM
N#CC(C#N)=C1C=C(/C=C/c2ccc(O)c(C(=O)O)c2)Oc2ccccc21 | > 500 µM | > 1000 µM
CC1(C)C(/C=C/c2ccc(O)c(C(=O)O)c2)=[N+](CCC(=O)O)c2ccc3ccccc3c21 | 36.7 µM | 3.2 µM
